For experiment [1], the target named is T1, C5a receptor (Homo sapiens, UniProt P21730).
T1 sequence (P21730 1-350): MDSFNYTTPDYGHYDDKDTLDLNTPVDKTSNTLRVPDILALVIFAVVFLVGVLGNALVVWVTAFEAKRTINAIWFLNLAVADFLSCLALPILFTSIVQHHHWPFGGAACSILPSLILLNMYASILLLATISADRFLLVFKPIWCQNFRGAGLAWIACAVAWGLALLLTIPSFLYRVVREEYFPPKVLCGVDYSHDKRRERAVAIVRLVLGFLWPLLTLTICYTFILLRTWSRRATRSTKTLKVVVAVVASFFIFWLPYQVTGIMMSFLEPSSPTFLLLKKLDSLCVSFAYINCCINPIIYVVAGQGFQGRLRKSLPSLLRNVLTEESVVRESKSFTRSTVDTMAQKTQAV
The settings on record: read-out: IC50 as a measure for affinity (WO 03/033528); cited from earlier work.

Experiment [2] addresses T2, C5aR (Homo sapiens, UniProt P21730).
T2 construct: derived from measurements with isolated membranes from polymorphonuclear neutrophilic granulocytes (PMN membranes); host or cells: isolated membranes of polymorphonuclear neutrophilic granulocytes (PMN membranes)
T2 sequence (P21730 1-350): T1 sequence (P21730 1-350)
The experiment is described as follows: Prior-art antagonistic activity (WO 03/033528). The note with it: WO 03/033528 values. From the text: In WO 03/033528 single substitutions of various amino acids in the molecule Ac-Phe[Orn-Pro-cha-Trp-Arg](compound 1) [SEQ ID NO: 6] are reported. A decrease of the affinity to the C5aR and a decrease in antagonistic potency is described for the substitution of the Arg with homoarginine (compound 44), citrulline (compound 45), lysine ([…]), or canavanine (compound 47). […] No IC50 value is reported for canavanine. […] Apart from the effects of charged arginine substitutions (homoarginine and lysine), in particular the strong decrease in binding strength upon exchange of the charged arginine (0.45 μM) by the uncharged citrulline (6 μM) is remarkable. The antagonistic activity is reduced even more (Arg: 0.028 μM, Cit: 0.690 μM). […] This also reflects that the size of the side chain itself is not sufficient as a criterium for predicting the activity. WO 03/033528 sets forth that the arginine (1) substitution to citrulline (45) results in a compound with allegedly remarkable antagonistic properties (p. 44, line 28ff). However, the cut off rate for what is remarkable, is chosen arbitrarily and the significant 24-fold drop in activity underlines the in the prior art well known importance of the C-terminal arginine in the peptidic C5aR antagonists. […]

Experiment [3] addresses T2, C5aR. The note with it: PMN membranes, cited from earlier work.
Experiment [4] concerns human PMNs. The note with it: myeloperoxidase release, read-out: IC50 antagonistic activity (WO 99/00406); cited from earlier work.
In experiment [5] the target is T3, human C5aR (CD88) (Homo sapiens, UniProt P21730).
T3 construct: expressed in transfected cells; host or cells: rat basophilic leukemia cells (RBL)
T3 sequence (P21730 1-350): T1 sequence (P21730 1-350)
The experiment is described as follows: Determination of the IC50 value in an enzyme release assay (functional assay, antagonistic activity). It is filed as cell-based.

Experiment [6] relates to BALB/c mice. The experiment is described as follows: Model of immune complex mediated peritonitis (reverse passive Arthus reaction). The settings on record: 1 mg/kg i.v. 15 min before Arthus reaction, lavage after 6 h, FIG. 1. Format: in vivo. Here is the method: Immune complex mediated peritonitis is part of the pathological conditions of immune complex related diseases such as vasculitis, nephritis, arthritis, and farmer's disease. The corresponding animal model was described by Heller et al. (1999 Journal of Immunology 163: 985-994) and takes advantage of the pro-inflammatory effect of immune complexes formation from i.v. administration of the antigen and i.p. administration of the antibody.
BALB/c mice (6-8 weeks old) were treated i.v. with the compound 149 (1 mg/kg body weight in 200 μl vehicle) which is one in accordance with the present invention, 15 min before the initiation of the reverse passive Arthus reaction. Arthus reaction was induced by the administration of OVA (20 mg/kg i.v. in 200 μl PBS) and polyclonal anti-OVA Ab (rabbit; 800 μg/Maus i.p). After 6 h a peritoenal lavage with 2 ml PBS 0.1% BSA was done. The collected PE-cells were stained with DIFF-Quick. At least 20 visual fields (100× magnification) were analysed for the presence of neutrophils.

For experiment [7], the target named is T3, human C5aR (CD88). The experiment is described as follows: Determination of EC50 values in an enzyme release assay (agonistic activity, no C5a added). Format: cell-based. The settings on record: cellular assay, up to a concentration of at least 1430 nM. The procedure:
The determination of the EC50 value was performed in a way similar to the procedure described in example 11, with the only exception that 30 μl of the compound to be tested were mixed with 75 μl of the cell suspension described in example 11. There was no preincubation or addition of C5a for stimulation of the enzyme release.

Experiment [8] concerns Female Wistar rats. The experiment is described as follows: Model of C5a induced neutropenia. Format: in vivo. The note with it: i.v. infusion 10 min before 2 μg/kg hrC5a i.v., FIG. 2. From the text: C5a induced neutropenia is a model for shock induced diseases (e.g. septic shock), where the systemic role of C5a such as neutropenia, blood pressure decrease, plays an important role. The reason for the decrease of the neutrophils in the circulation is their C5a triggered binding to the vessel walls. This process of neutrophil recruitment is also playing an important role in many other diseases like reperfusion injury. This model was also described by Short et al. (1999 British Journal of Pharmacology 125: 551-554).
Female Wistar rats were anaesthetized i.p. with ketamine (80 mg/kg) and xylazine (12 mg/kg). A catheter was introduced into the jugular veine and the animals were subjected to the following procedure: • 1. Rats were pre-treated with vehicle or compound 149 which is a compound according to the invention, via i.v. infusion. A blood sample was taken one minute prior to that. • 2. 10 min after compound infusion the rats were treated with 2 μg/kg hrC5a i.v. (2 μg/kg over 1 min)
Blood samples are taken shortly before and at various times after hrC5a administration. • 3. […]
White blood cell count was measured with a haematology-cell-counter. […]
The differential cell count is determined as the sum of neutrophils, eosinophils, basophils, lymphocytes and monocytes of 100 cells. Then the percentage of the neutrophils in relation to all white blood cells is calculated.

Experiment [9] addresses T4, human C5aR (CD88) (human, UniProt P21730 1-350).
T4 sequence (looked up): T1 sequence (P21730 1-350)
The experiment is described as follows: cell-based or functional assay.

The target in experiment [10] is T4, human C5aR (CD88). Kind of experiment: cell-based or functional assay. The source holds these as a separate data set.
Where [11] appears, read: read-out: IC50 for the binding (WO 90/09162).
The mark [12] stands for this setting: read-out: IC50 binding to C5aR (WO 92/12168).

Data on ten molecules can be found in patent US7727960B2, “C5a receptor antagonists” (Jerini AG, priority 2003, dated 2010).

Where two headings read alike, the source gives them in different places. Non-standard residues stand in square brackets, D forms with d. Residues, ends and D or L forms follow the SMILES beside them. No end group written: not given here. Phenylbutanoyl = Phenylbutanoyl residue at the C-terminus; Bta = N[C@@H](Cc1csc2ccccc12)C(=O)O; NMeF = CN[C@@H](Cc1ccccc1)C(=O)O; d(hLeu) = CC(C)CC[C@@H](N)C(=O)O; Cha = N[C@@H](CC1CCCCC1)C(=O)O; dCha = N[C@H](CC1CCCCC1)C(=O)O; Orn = NCCC[C@H](N)C(=O)O; dNMeA = CN[C@H](C)C(=O)O

Take “Ac-Phe[Orn-Pro-cha-Trp-Arg] with the Arg substituted with lysine (WO 03/033528); number 47 also printed for canavanine [WO 03/033528 compound 47]”: the IC50 in [1] is 24000 nM.
Regarding `CC(=O)N[C@@H](Cc1ccccc1)C(=O)N[C@H]1CCCNC(=O)[C@H](CCCNC(N)=O)NC(=O)[C@H](Cc2c[nH]c3ccccc23)NC(=O)[C@@H](CC2CCCCC2)NC(=O)[C@@H]2CCCN2C1=O` [Compound 10, Ac-Phe-[Orn-Pro-cha-Trp-Cit]], the “drop in activity on substitution of arginine by citrulline” value in experiment [2] turned out to be 24 fold.
As for `CC(=O)N[C@@H](Cc1ccccc1)C(=O)N[C@@H](CCCCN)C(=O)N[C@@H](C)C(=O)N[C@@H](CC1CCCCC1)C(=O)N[C@@H](C)C(=O)N[C@@H](CC(C)C)C(=O)N[C@H](C)C(=O)N[C@@H](Cc1ccc(O)cc1)C(=O)O` [Ac-Phe-Lys-Ala-Cha-Ala-Leu-ala-Tyr-OH] (Ac-FKA[Cha]AL[dA]Y-OH), the IC50 in [3] (setting [11]) was 170 nM.
For “Ac-Phe[Orn-Pro-cha-Trp-Arg] with the Arg substituted with homoarginine (WO 03/033528) [WO 03/033528 compound 44]”, the IC50 in [1] was 1360 nM.
With “Me-Phe-Lys-Pro-cha-Trp-arg (FKPXWX; N-methyl, D-cha, D-Arg; oligopeptide with antagonistic activity at the C5a receptor)”, the IC50 in experiment [4] was 85 nM.
With “(N-Methyl)Phe-Lys-Pro-cha-ψ{CH2- N(CH2CH2C6H5)}-Arg-OH”, the IC50 in experiment [3] (setting [12]) is 360 nM.
Turning to “Ac-Phe-Lys-Ala-Cha-Ala-Leu-N-Methyl(D)ala-Arg-OH (Ac-FKA[Cha]AL[dNMeA]R-OH; SMILES CC(=O)N[C@@H](Cc1ccccc1)C(=O)N[C@@H](CCCCN)C(=O)N[C@@H](C)C(=O)N[C@@H](CC1CCCCC1)C(=O)N[C@@H](C)C(=O)N[C@@H](CC(C)C)C(=O)N(C)[C@H](C)C(=O)N[C@@H](CCCNC(=N)N)C(=O)O)”, the IC50 in [3] (setting [11]) is 12 nM.
With `CC(=O)N[C@@H](Cc1ccccc1)C(=O)N[C@@H](CCCN)C(=O)N1CCC[C@H]1C(=O)N[C@H](CCC(C)C)C(=O)N[C@@H](Cc1csc2ccccc12)C(=O)N[C@@H](Cc1ccccc1)C(N)=O` [Compound 149, Ac-Phe-Orn-Pro-hle-Bta-Phe-NH2] (Ac-F[Orn]P[d(hLeu)][Bta]F-NH2), the “inhibitory activity (in words)” value in [5] is reported as “noteworthy inhibitory activity”. For the same molecule, the “influx of pro-inflammatory cells (neutrophils) into the peritoneum” value in experiment [6] is on record as “reduction of the influx of pro-inflammatory cells into the peritoneum”. Moreover, in [7], the “agonistic activity (in words)” value was “pure antagonists”. The C5a-induced neutropenia entry in [8] is reported as “reduces significantly C5a-induced neutropenia”.
“(N-Methyl)Phe-Lys-Pro-cha-Phe-Phenylbutanoyl ([NMeF]KP[dCha]F-Phenylbutanoyl)”: the IC50 in [3] (setting [12]) was 2600 nM.
On to FXPXWX (not fully specified; Ac-; Orn2; cha4 (D); Cit6; cyclic [2-6]) [Ac-Phe-[Orn-Pro-cha-Trp-Cit]], for which the “IC50 activity group, enzyme release assay” value in experiment [9] is ≤ 2000 nM. The “IC50 activity group, enzyme release assay (Example 30)” value in [10] was ≤ 2000 nM.
